Measured values reported in patent publication US20040219186A1, “Expandable gastric retention device” (priority 2001, published 2004).
≈ marks a conversion by molar mass, not a printed value. Read-outs that look alike come from different tables or passages of the source.

Tests used:
[1] = in vivo; cited from earlier work
Strep. pneumococci = conditions: cited from earlier work
[2] = Hydrochlorothiazide 50 mg bio-study, IR versus GRD, urinary drug excretion, urine output and side effects, fasting subjects; assay type: in vivo; conditions: both sexes, human, oral, HCTZ 50 mg, read-out: Elimination half-life (t1/2) (converted)
Procedure: Two formulations for hydrochlorothiazide (an immediate release formulation (IR) and a gastric retention device (GRD)) containing sustained release formulations (SR) were administered in the bio-study (bioavailability study). A commercial tablet containing 50 mg of HCTZ was used as an IR control, and spray-coated beads equivalent to 50 mg of HCTZ were formulated for SR in the lab. The process of SR formulation is described above. Bio-study was performed to evaluate the bioavailability as well as pharmacodynamics of HCTZ from a GRD compared to those from an IR.
Monitoring concentrations of hydrochlorothiazide in the urine of healthy adult volunteers allowed comparison of the relative bioavailability of hydrochlorothiazide from the GRD formulation and from a conventional tablet. Participation involved at least two days for each treatment with at least 72-hours washout period between doses. An IR was given once and the GRD was repeated twice to test the reproducibility of the new dosage form, GRD. A 50 mg dose of was chosen for the study because it was in the range of the recommended dose from the PDR (Physician's Desk References) and it produced concentrations high enough to make HPLC analysis efficient. Six subjects participated in the study, 4 healthy males and 2 healthy females. […] The volume of urine collected was measured in order to calculate total amount of drug recovered. […]

Row | Structure (SMILES) | half-life [1] | MIC (Strep. pneumococci) | half-life [2]
1 | CC1(C)S[C@@H]2[C@H](NC(=O)[C@H](N)c3ccc(O)cc3)C(=O)N2[C@H]1C(=O)O [Amoxicillin] | about 1 hour | 0.02 µg/mL (≈ 0.0547 µM) | 
2 | NS(=O)(=O)c1cc2c(cc1Cl)NCNS2(=O)=O [hydrochlorothiazide] |  |  | ~420 min
